Laboratory results taken from PMC10145814 (Viruses, 2023).

Molecular target: T1, PI4KB (Homo sapiens, UniProt Q9UBF8)
T1 construct: purified GST-PI4KB (PV5277, Thermo Fisher)
Type: biochemical

T1 sequence (Q9UBF8 2-816): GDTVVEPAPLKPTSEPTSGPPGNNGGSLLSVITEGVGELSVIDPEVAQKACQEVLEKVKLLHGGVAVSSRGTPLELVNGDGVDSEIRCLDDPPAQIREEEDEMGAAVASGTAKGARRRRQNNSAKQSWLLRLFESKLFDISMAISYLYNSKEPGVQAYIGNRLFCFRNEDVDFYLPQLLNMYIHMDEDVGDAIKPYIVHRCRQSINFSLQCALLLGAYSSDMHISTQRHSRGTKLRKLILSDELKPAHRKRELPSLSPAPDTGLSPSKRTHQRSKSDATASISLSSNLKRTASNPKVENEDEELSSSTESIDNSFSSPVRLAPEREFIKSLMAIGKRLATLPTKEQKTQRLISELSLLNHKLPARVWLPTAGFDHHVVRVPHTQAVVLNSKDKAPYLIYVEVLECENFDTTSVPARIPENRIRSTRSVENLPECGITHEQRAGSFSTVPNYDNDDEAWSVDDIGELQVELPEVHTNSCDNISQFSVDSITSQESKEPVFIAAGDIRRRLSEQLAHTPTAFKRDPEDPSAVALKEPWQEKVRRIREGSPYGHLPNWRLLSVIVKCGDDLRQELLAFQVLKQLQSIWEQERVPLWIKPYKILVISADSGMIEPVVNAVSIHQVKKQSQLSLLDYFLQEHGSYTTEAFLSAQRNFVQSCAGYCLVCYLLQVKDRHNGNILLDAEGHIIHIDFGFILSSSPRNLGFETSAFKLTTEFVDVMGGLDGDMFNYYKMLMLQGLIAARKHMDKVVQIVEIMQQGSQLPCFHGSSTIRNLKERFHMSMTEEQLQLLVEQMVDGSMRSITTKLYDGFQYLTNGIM

**Q.** `COc1cc(/C=C/C(=O)OC[C@H]2O[C@H](O[C@]3(COC(=O)/C=C/c4ccc(O)cc4)O[C@H](COC(=O)/C=C/c4ccc(O)cc4)[C@@H](O)[C@@H]3OC(=O)/C=C/c3ccc(O)cc3)[C@H](O)[C@@H](O)[C@@H]2O)ccc1O` [VCB, vanicoside B] was tested. Which IC50 did it give?
**A.** 5 µM
